Entries after “also recorded” stand apart in the source; their conditions may differ.
Key:
[1] = molecular target: T1, SELH (Homo sapiens, UniProt Q8IZQ5); experiment: Western blot of SELH protein level in treated cells; type: cell-based; design: endogenous in cells; host or cells: LN229, 786-O, T98G, U118, U251, RCC4; details: for SELH protein expression, different concentrations: LN229 cells, 24 hours post-treatment
T1 sequence (Q8IZQ5 1-122): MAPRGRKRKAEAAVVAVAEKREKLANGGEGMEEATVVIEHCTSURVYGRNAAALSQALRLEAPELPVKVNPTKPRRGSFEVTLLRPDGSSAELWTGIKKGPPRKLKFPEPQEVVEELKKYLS
Experimental: A cycloheximide (CHX) chase assay was completed to assess ISP I's effect on SELH protein degradation.
Western blotting was performed to detect the protein expression level of SELH, NRF2 and γH2AX regulated by ISP I. The cells were lysed by RIPA buffer from ThermoFisher Scientific, and the concentration was measured using DC Protein Assay, a Bio-Rad product. Equal amounts of protein of each sample were loaded for gel electrophoresis and were transferred to nitrocellulose membrane, blocked and incubated overnight at 4° C. with primary antibodies. Then the membranes were washed with TBST (3 times, 10 min each). Exposure, imaging, and data analysis were done using a KwikQuant Imager system, a product of Kindle Biosciences (Greenwich, Conn. USA). The following antibodies were used: anti-phospho-histone H2A.X (Ser139), anti-NRF2 (Cell Signaling, Danvers, Mass. USA), anti-SELH (Abcam, Cambridge, Mass. USA), anti-GAPDH (Millipore, Temecula, Calif. USA).

[2] = system: TIF1A-POL1 interaction; experiment: Co-immunoprecipitation of TIF1A and POL1; type: cell-based; details: LN229 cells; 10 μg/mL
Experimental: SELH is localized in the nucleolus, which is a sensor of oxidative stress. Yang et al., Nature communications 7: 13599 (2016); Novoselov et al., J. Biol. Chem. 282: 11960 (2007). […] JNK2 activation by oxidative stress inactivated RNA polymerase I (POL1) transcription factor TIF1A in the nucleoli to down-regulate rRNA synthesis. Mayer et al., Genes Dev. 19: 933 (2005). To investigate whether the ribosomal biogenesis was disrupted by ISP I, pre-rRNA transcription was evaluated using real-time RT-PCR analysis in LN229 cells. […] To examine the mechanisms by which ISP I disrupts POL1 transcription, the inventors initially evaluated JNK2 activity and the overall state of the transcription machinery in ISP I-treated LN229 cells.
For co-immunoprecipitation analysis, LN229 wild-type cells, LN229 cells treated with 10 μg/mL of ISP I, and LN229 cells transfected with SELH siRNA for 24 hours were harvested, and total protein was prepared from cells using Dynabeads Co-Immunoprecipitation Kit (ThermoFisher) according to the manufacturer's protocol. Immunoblotting then was performed using anti-SELH antibody.

[3] = system: murine B16 cells (lung metastasis); experiment: B16 melanoma lung metastasis mouse model; type: in vivo, C57BL/6 mice; details: 35 mg/kg i.p. every day, 12 days; vs saline
Experimental: In addition to the aforementioned xenograft tumor models, the anti-tumor activity of ISP I was assessed in a metastatic murine melanoma (B16) model.
For metastasis study, C57BL/6 mice (4-5 weeks) from Charles River Laboratories (Wilmington, Mass. USA) were assigned randomly to one or another of two groups, 9 animals per group. B16-F10 mouse skin melanoma cells (2×10^5) were resuspended in 100 μl saline and injected through tail vein. After treatment with ISP I at 35 mg/kg for 12 days, all mice were euthanized, and the lungs were examined for counting black metastasis dots.

[4] = system: LN229 and U251 cells; experiment: Annexin V apoptosis flow cytometry, glioblastoma cells; type: cell-based
Experimental: To assess the cytotoxicity of ISPs I, II and III, five glioblastoma cell lines, T98G, U118, A172, LN229 and U251, were treated with serial doses of each ISP, respectively, for 48 hours. Cell viability of these cell lines were evaluated by CCK8 assay, and the 50% inhibitory concentration (IC50) was calculated (FIG. 2A, B and FIG. 3). […] Cell distribution in each phase of the cell cycle was assessed in LN229 and U251 cells by flow cytometry, followed by EdU and DAPI staining.
Cells (2×10^5) were plated in 6-well plates and treated with different concentrations of ISP I. Then the cells were harvested and washed three times with PBS. Cells were resuspended in 100 μl binding buffer and were incubated with 5 μl APC-conjugated Annexin V working solution, a product of BD bioscience (Franklin Lakes, N.J. USA), and 1 μl propidium iodide (PI), a product of Invitrogen, for 15 min at room temperature with protection from light. Data acquisition and quantification were processed with BD LSRFortessa flow cytometer, using FlowJo software (Ashland, Oreg. USA).

[5] = system: glutathione-dependent peroxidases (SELH enzyme activity); experiment: Glutathione peroxidase activity assay; type: cell-based; details: LN229 cells
Source text: Since glutathione peroxidase catalyzes the reduction of reactive oxidative species (ROS), the inventors assessed whether treatment with ISP I increased the generation of ROS in glioblastoma cell lines (LN229 and U251) and RCC cell lines (786-O and RCC4).
Glutathione peroxidase kit (Abcam, Cambridge, Mass. USA) was used to quantitate the activity of all of the glutathione-dependent peroxidases in live cells (2×10^6), which were harvested and homogenized with assay buffer provided in the kit. Then the supernatant was collected and incubated in accordance with the manufacturer's instructions. Absorbance at 340 nm was measured using the microplate reader mentioned above.

[6] = system: SELH-deficient 786-O and RCC4 cells; experiment: CCK8 assay in SELH-deficient (CRISPR/CAS9) RCC cells; type: cell-based; details: 786-O and RCC4 SELH knock out
Experimental: Cell viability was measured by Cell Counting Kit-8 (CCK-8, Dojindo Molecular Technologies, Tokyo, Japan). Cells were seeded in 96-well plates at a density of 3×10^3 cells/well and cultured for 24 hours before treatment with ISP I at different concentration. After treatment for a gradient ISP I concentration from 0 to 20 μg/ml for 48 hours, while control groups were only treated in PBS solution, 10 μl of CCK-8 solution were added to each well and cells were incubated for an additional 2 hours. The absorbance in each well at a wavelength of OD450 was detected by the Synergy H1 microplate reader, a product of BioTek (Winooski, Vt. USA).

Q: With `COC1C(O)CC(=O)OC(C)CC=CC=CC(OC2CCC(N(C)C)C(C)O2)C(C)CC(CC=O)C1OC1OC(C)C(OC2CC(C)(O)C(OC(=O)CC(C)C)C(C)O2)C(N(C)C)C1O` (stereo not drawn) [ISP I, 4″-isolvalerylspiramycin I] as the compound, how does the “SELH protein levels in RCC cell lines” value ([1]; 786-O and RCC4, 10 μg/ml, 24 hours) read?
A: Its value is “decreased SELH levels; also recorded: inhibitory effect on SELH expression also was confirmed”.

Q: And the “SELH protein expression, different concentrations” value [1]?
A: Its value is “reduced SELH protein expression in LN229 cells in a dose-dependent manner”.

Q: And the “SELH protein expression, different concentrations” value ([1]; listed as ISP 1)?
A: The value was “decline, in a dose-dependent manner, of SELH levels”.

Q: And the “SELH protein levels in glioblastoma cell lines” value ([1]; T98G, U118, LN229, U251, 10 μg/mL, 24 hours)?
A: The value was “decreased SELH levels; also recorded: inhibitory effect on SELH expression also was confirmed”.

Q: And the “TIF1A-POL1 interaction (co-immunoprecipitation)” value [2]?
A: Its value is “interaction was disrupted by ISP I treatment”.

Q: And the “lung tumor nodules (melanoma spots)” value [3]?
A: Its value is “significantly reduced lung tumor nodules”.

Q: What about the “apoptosis (Annexin V stain)” value [4] of the same compound?
A: The value was “induced a dose-dependent apoptosis”.

Q: And the glutathione peroxidase activity [5]?
A: The glutathione peroxidase activity was “decrease, in a dose-dependent manner, of SELH enzyme activity; also recorded: significantly reduced glutathione peroxidase activity”.

Q: What about the “sensitivity of SELH-deficient cells vs wild type (CCK8)” value [6] of the same compound?
A: The value was “resistance to ISP I; also recorded: SELH-deficient cells were resistant to ISP I treatment”.

From patent US11351185B2, “Use of isovalerylspiramycins as anti-cancer agents to inhibit metastasis” (priority 2020, dated 2022)
